“Also recorded” adds a separate entry of the source. Where two headings read alike, the source gives them in different places.
Tests used:
[1] = for BER, Cmax, total CI5%: PoD 10 nM
Description: For human exposure, the aim is to estimate a safe dose when used in a body lotion or face cream. […] Therefore, metabolism was considered by incorporating a model to characterize the rate of metabolism and then fitted it to the metabolism measured in ex vivo viable skin.
An additional safety factor of 3.3 was applied to account for intra-individual variability.

Androgen pathway = tested on: Androgen pathway; design: method as in ToxCast; settings: ref ToxCast, cited from earlier work; for Androgen pathway: Cell Proliferation, Call: key: Pos = positive result; Neg = negative result; Inc = uncertain/inconclusive result; for Androgen pathway: Dimerization, Call: key: Pos = positive result; Neg = negative result; Inc = uncertain/inconclusive result; for Androgen pathway: Receptor binding, Call: key: Pos = positive result; Neg = negative result; Inc = uncertain/inconclusive result; for Androgen pathway: Reporter protein Agonist, Call: key: Pos = positive result; Neg = negative result; Inc = uncertain/inconclusive result
ERα receptor = ERα receptor (Homo sapiens, UniProt P03372)
Protocol: (§1) using the U2-OS based CALUX cytotox bioassay. The cytotoxicity of each test chemical was assessed using the U2-OS based cytotoxicity CALUX bioassay. Concentrations causing >20% reduction of luminescence were considered cytotoxic.
(§2) cytotoxicity (relative induction in the cytotoxicity CALUX bioassay > 80%) were used for final
evaluation of analysis results.
(§3) induction in the cytotox CALUX bioassay > 80%) were used for final evaluation of analysis results.
(§4) All analysis results were expressed in molar (M) final in well.
(§5) For determination of the (anti-)ERα, (anti-)AR and (anti-)TRβ CALUX activities, CALUX cells were
(§6) seeded in assay medium. Following exposure of the CALUX cells to serial dilutions of the
(§7) compounds in triplicate for 24 h, the induction of luciferase production was quantified by measuring
(§8) luminescence following addition of the substrate luciferin. For antagonist assays, a fixed
(§9) concentration of assay agonist was present in each well, to generate a basal signal. On each plate, a
(§10) complete calibration curve for each respective bioassay was also analysed using the relevant reference
compounds. For the analyses in the presence of rat liver S9, 0.03% (v/v) of PB/BNF induced rat liver […]
Relative light units (RLUs) of the CALUX assays were analysed as follows. […]
effect concentrations (LOECs) and PC50 concentrations were determined; LOEC is defined as the […]

THRα = tested on: THRα; design: method as in ToxCast; settings: ref ToxCast; cited from earlier work
EGFR Human RTK Kinase = EGFR Human RTK Kinase (Homo sapiens, UniProt P00533); test: biochemical; settings: read-out: EGFR Human RTK Kinase Enzyme activity: % inhibition @10 µM
Protocol: (§11) Chemicals that are flagged for a target are tested in follow-up dose-response assays to establish potency of the interaction.
(§12) Relative light units (RLUs) of the CALUX assays were analysed as follows. For agonist assays,
(§13) background values (exposure to DMSO only) were subtracted, and the maximum activity of the
(§14) assay’s reference compound was set to 100%. For antagonist assays, the basal signal (exposure to fixed concentration of agonist only) was set to 100%. Activity of the samples was scaled accordingly,
(§15) resulting in expression of the data as “percentage of maximum reference response”. Graphs were
(§16) generated using the statistical software package GraphPad Prism V5.03. Using these graphs, lowest
(§17) effect concentrations (LOECs) and PC50 concentrations were determined; LOEC is defined as the
(§18) maximum reference compound activity for agonist assays, and 20% of the maximum reference
(§19) compound activity for antagonist assays. The PC50 is defined as the concentration where the activity
(§20) of the sample equals 50% of the maximum activity of the assay’s reference compound.
(§21) the test compound was divided by the amount of estrogens and androgens produced by the solvent
(§22) control-exposed cells. A sample was considered ‘active’ if it decreased the hormone production 0.8-
Pharmacology profiling assays
targets. The list of targets included the original panel of 44 targets (including receptors, ion channels, […]

5-HT2A (h) = 5-HT2A (h) (Homo sapiens, UniProt P28223); test: biochemical; type: binding; settings: read-out: 5-HT2A (h) (agonist RL): % inhibition @10 µM
Protocol: as §11
Pharmacology profiling assays
targets. The list of targets included the original panel of 44 targets (including receptors, ion channels,
transporters and enzymes) recommended by 4 major pharmaceutical companies as significant
reasoned to link to pathological effects. Results showing an inhibition or stimulation higher than 50%
are considered to represent significant effects (i.e. a “hit”).
and 50% are indicative of weak to moderate effects and results showing an inhibition (or stimulation)
around the control level. For several targets, additional concentration effect assays were conducted to
determine the potency (IC50). The concentrations tested (in duplicate) ranged between 30 nM and 100

TRβ = molecular target: T1, TRβ (Homo sapiens, UniProt P10828); test: TRβ CALUX assay (thyroid)
T1 sequence (P10828 1-461): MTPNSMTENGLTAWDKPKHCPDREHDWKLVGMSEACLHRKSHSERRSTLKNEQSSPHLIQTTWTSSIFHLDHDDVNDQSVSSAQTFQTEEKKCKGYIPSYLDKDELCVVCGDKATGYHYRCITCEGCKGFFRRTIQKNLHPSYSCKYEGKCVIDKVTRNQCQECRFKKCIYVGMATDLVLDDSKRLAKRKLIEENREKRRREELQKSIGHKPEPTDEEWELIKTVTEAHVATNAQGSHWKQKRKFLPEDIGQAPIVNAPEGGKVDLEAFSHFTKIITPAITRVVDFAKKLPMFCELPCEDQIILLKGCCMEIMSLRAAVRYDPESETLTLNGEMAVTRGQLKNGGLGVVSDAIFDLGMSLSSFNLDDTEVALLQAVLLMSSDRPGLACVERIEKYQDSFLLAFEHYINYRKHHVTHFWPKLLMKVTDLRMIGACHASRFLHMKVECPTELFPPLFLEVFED
Protocol: as §1, §2
evaluation of analysis results.
as §3, §4, §5, §6, §7, §8, §9, §10
compounds. For the analyses in the presence of rat liver S9, 0.03% (v/v) of PB/BNF induced rat liver
S9 mix (including NADPH and an NADPH-regenerating system) was added to the cells directly after
addition of the compounds, which remained there for the duration of the exposure period (24 h) (van
as §12, §13, §14, §15, §16, §17, §18, §19, §20

[2] = at 25°C, in vitro; ref Nan et al. (2014); cited from earlier work
rats = settings: cited from earlier work
mice [3] = settings: oral administration; ref SCCS 2022; cited from earlier work
Transthyretin (TTR) = Transthyretin (TTR) (Homo sapiens, UniProt P02766)
Protocol: DMSO (1% compound stock in incubation mixture). The incubation mixture was transferred to 96 -
was measured on a Berthold luminometer.
(§23) Serial dilutions of the compounds were incubated in Tris -buffer (pH 8.0) overnight at 4°C in the
(§24) incubation mixture). After incubation, TTR-bound and free T4 were separated on a Bio-Gel P-6DG
(§25) column. The eluate was added to assay medium after which TRβ CALUX cells were exposed for 24 h
(see CALUX bioassays). For this TRβ CALUX exposure, serum-free assay medium was used.

[4] = tested on: Syrian Hamster Embryo (SHE) cells; settings: ref SCCS 2022; cited from earlier work
mice [5] = settings: in the diet; ref SCCS 2022; cited from earlier work
HepG2 and MCF-7 cells = settings: 24 h
Sprague-Dawley rats = settings: cited from earlier work
dogs = settings: male and female dogs; ref McClain et al. 2005; cited from earlier work
[6] = molecular target: T2, human thyroid peroxidase (hTPO) (Homo sapiens, UniProt P07202)
T2 sequence (P07202 19-933): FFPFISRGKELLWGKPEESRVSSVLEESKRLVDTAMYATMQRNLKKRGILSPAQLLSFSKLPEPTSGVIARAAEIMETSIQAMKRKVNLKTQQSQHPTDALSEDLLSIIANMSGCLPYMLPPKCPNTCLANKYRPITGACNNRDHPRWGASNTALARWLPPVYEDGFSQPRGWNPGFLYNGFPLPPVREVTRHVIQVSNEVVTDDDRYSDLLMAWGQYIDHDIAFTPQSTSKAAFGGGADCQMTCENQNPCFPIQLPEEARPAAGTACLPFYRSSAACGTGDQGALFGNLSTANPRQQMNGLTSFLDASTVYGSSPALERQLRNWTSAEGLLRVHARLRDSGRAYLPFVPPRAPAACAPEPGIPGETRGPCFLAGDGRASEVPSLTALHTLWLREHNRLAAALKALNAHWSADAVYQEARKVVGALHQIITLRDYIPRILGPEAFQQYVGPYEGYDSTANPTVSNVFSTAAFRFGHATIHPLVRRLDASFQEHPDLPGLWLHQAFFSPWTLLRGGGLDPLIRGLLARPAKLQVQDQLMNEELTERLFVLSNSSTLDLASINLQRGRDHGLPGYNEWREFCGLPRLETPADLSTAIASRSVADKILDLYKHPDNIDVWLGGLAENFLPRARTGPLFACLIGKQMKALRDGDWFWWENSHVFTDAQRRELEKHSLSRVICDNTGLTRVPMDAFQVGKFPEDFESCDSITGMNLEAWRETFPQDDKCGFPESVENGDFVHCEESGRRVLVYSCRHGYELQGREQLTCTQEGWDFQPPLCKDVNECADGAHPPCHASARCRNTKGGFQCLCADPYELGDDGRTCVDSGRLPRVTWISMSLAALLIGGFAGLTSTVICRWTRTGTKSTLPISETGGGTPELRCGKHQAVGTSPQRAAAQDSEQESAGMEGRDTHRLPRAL
Protocol: hTPO was derived from Nthy-ori 3-1 cells. Cell lysate containing hTPO in Glycine-NaOH buffer (pH
9.0) was incubated for 30 minutes at 37°C in the presence of serial dilutions of the compounds in
(§26) DMSO (1% compound stock in incubation mixture).
was measured on a Berthold luminometer.
(§27) Preincubation with rat liver S9 fraction
(§28) To assess the effect of metabolism on the activity of the test
compound for these assays, preincubations with rat liver S9 were performed.

[7] = +S9 (preincubation with rat liver S9)

Chain of ERα receptor (P03372 whole entry): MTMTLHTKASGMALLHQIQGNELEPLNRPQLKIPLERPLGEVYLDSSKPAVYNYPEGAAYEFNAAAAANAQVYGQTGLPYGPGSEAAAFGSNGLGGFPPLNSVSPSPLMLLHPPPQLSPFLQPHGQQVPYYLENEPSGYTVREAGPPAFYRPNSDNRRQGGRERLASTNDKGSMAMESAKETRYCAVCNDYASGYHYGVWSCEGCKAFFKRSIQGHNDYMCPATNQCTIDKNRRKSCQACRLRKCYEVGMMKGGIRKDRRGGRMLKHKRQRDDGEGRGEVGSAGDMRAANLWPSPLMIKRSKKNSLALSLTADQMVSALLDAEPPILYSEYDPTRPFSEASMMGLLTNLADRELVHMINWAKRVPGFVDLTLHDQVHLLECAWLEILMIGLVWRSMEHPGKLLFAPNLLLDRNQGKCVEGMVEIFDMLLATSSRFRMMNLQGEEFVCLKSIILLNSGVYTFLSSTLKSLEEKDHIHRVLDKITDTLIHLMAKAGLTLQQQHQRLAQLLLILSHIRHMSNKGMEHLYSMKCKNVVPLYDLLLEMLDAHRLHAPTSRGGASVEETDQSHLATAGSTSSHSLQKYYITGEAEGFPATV
Chain of EGFR Human RTK Kinase (P00533 25-1210): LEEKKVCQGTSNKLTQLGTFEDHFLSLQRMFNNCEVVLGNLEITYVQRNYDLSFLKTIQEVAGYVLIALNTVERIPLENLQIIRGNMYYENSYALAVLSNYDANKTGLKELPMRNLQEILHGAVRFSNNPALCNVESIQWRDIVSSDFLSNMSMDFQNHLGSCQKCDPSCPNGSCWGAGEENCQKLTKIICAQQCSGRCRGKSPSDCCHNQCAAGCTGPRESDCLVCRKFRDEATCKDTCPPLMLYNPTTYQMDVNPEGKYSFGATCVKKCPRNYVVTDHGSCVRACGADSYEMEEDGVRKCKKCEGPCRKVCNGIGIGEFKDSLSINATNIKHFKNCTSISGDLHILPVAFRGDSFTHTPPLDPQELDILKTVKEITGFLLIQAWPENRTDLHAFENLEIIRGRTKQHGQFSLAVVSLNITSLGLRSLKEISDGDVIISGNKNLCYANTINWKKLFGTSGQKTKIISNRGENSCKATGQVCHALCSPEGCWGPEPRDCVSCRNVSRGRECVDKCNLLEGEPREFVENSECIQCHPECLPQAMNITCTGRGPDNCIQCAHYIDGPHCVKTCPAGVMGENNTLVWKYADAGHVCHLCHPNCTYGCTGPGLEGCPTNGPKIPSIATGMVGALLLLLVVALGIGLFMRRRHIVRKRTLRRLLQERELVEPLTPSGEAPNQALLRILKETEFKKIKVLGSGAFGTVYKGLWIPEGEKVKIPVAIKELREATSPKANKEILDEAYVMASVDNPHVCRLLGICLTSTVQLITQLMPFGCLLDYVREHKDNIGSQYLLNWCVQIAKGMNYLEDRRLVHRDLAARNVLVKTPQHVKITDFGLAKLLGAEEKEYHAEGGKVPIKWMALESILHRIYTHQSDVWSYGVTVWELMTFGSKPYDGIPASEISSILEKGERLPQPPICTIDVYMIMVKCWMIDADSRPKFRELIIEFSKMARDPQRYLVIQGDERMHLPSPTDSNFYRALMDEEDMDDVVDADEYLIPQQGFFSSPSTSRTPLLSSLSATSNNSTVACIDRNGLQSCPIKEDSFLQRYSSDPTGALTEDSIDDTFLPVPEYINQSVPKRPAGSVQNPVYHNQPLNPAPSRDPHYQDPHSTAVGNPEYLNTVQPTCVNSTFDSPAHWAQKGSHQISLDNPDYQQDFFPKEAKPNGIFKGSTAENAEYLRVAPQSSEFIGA
Chain of 5-HT2A (h) (P28223 whole entry): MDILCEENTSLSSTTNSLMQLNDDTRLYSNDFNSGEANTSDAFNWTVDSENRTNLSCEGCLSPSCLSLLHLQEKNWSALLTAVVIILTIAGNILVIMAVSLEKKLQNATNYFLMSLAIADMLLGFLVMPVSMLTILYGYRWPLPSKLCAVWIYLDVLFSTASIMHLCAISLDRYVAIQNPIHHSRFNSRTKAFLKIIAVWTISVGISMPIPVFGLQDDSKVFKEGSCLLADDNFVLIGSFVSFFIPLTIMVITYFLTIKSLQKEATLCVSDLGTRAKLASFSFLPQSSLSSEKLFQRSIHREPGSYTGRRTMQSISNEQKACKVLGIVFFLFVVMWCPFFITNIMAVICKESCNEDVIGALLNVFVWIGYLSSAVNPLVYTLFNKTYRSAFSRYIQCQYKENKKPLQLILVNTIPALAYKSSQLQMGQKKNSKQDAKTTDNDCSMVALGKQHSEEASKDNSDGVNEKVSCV
Protocol for H295R cells: as §26
was measured on a Berthold luminometer.
as §23, §24, §25
For this TRβ CALUX exposure, serum-free assay medium was used.
wells plates in assay medium, and exposed for 48h to a serial dilution of the compound in triplicate
exposure, the assay medium was analysed on the ERα and AR CALUX bioassays as described
Changes in hormone levels compared to a vehicle control exposure
as §27, §28
compound for these assays, preincubations with rat liver S9 were performed. Compounds (10 μl
DMSO stock solution) were incubated for 0 h (control) or 3 h (test condition) in a total volume of 1
ml TRIS buffer in the presence of 1% (v/v) PB/BNF induced rat liver S9 mix (including NADPH and
an NADPH-regenerating system). After incubation, the reaction was stopped by the addition of ice
cold acetone, and samples were frozen to stimulate protein precipitation. After thawing, the
precipitated protein fraction was subsequently removed by centrifugation. The supernatant, cont aining
the metabolites and any remaining non-metabolised parent compound, was concentrated under a
gentle nitrogen flow. After evaporating to dryness, the sample was taken up in 50 μl DMSO followed
by the addition of 50 μl TRIS buffer. This extract was used for the exposure of the hTPO inhibition,
as §12, §13, §14, §15, §16, §17, §18, §19, §20, §21, §22

O=c1c(-c2ccc(O)cc2)coc2cc(O)ccc12 [Daidzein, DAIDZEIN]
BERs derived using unbound plasma concentrations ([1]; 0.02% daidzein): 100–250 | BER, Cmax, total CI5% ([1]; body lotion with 0.02% daidzein): 10/0.68 = 14.7 | BER, Cmax, total CI5% ([1]; body lotion with 0.1% daidzein): 10/3.37 = 3.0 | Androgen pathway: Cell Proliferation, Call (Androgen pathway): Neg | Androgen pathway: Dimerization, Call (Androgen pathway): Neg | Androgen pathway: Receptor binding, Call (Androgen pathway): Neg | Androgen pathway: Reporter protein Agonist, Call (Androgen pathway): Neg | Androgen pathway: Reporter protein Antagonist, Call (Androgen pathway): Inc | Androgen pathway: mRNA induction, Call (Androgen pathway): Neg | AC50 (Androgen pathway; read-out: Androgen pathway: Reporter protein Antagonist, AC50): 36.1 µM | Anti-ERα antiestrogen LOEC, +S9 (ERα receptor; +S9 (rat liver)): >−5 Log M | Anti-ERα antiestrogen LOEC, −S9 (ERα receptor; −S9): >−5 Log M | Thyroid pathway: Receptor binding (THRα), Call (THRα): Neg (Neg = negative result) | inhibition at 10 µM (EGFR Human RTK Kinase): 17.8% | inhibition at 10 µM (5-HT2A (h)): 38.9%

O=c1c(-c2ccc(O)cc2)coc2cc(O)cc(O)c12 [Genistein, 5,7-DIHYDROXY-3-(4-HYDROXYPHENYL)-4-BENZOPYRONE]
TRß thyroid LOEC, +S9 (TRβ; +S9 (rat liver)): >−5 Log M | TRβ Agonist/antagonist effect (TRβ; CALUX): did not activate or antagonize the thyroid receptor-β; also recorded: No effect | TRß thyroid LOEC, −S9 (TRβ; −S9): >−5 Log M | pKa (dissociation constant) [2]: 7.25 ± 0.84 | NOAEL, 13 weeks (rats; male and female rats, feed 0, 5, 50 or 500 mg/kg/day, ref McClain et al. 2006): 50 mg/kg/day | NOAEL, 52 weeks (rats; male and female rats, feed, based on mild hepatic effects, ref McClain et al. 2006): 50 mg/kg/day | NOAEL from repeat dose studies (rats; ref McClain et al., 2006): above 50 mg/kg/day | In vivo DNA damage/Comet assay result (mice [3]): Negative in mice after oral administration | TTR LOEC, Inhibition of binding of T4 to TTR (Transthyretin (TTR)): 0.21 µM | TTR binding (thyroid) LOEC, +S9 (Transthyretin (TTR); [7]): −6.7 Log M | LOEC for inhibition of TTR binding (Transthyretin (TTR); inhibition of binding of T4 to TTR): 2.1 × 10^−7 ± 6.7 × 10^−8 | TTR binding (thyroid) LOEC, −S9 (Transthyretin (TTR); −S9): −6.7 Log M | Cell transformation assay (SHE cells) result [4]: one was positive | P53-/- Mouse Tumorigenesis Assay result (mice [5]): negative | Metabolism by HepG2 or MCF-7 cells (HepG2 and MCF-7 cells): metabolized by both cell types | NOAEL, female rats (Sprague-Dawley rats; 5 ppm in feed, ref NTP 2008): 0.5 mg/kg | NOAEL, male rats (PoD) (Sprague-Dawley rats; 5 ppm in feed, ref NTP 2008): 0.3 mg/kg | LOAEL, male rats (Sprague-Dawley rats; ref SCCS 2022): 7 mg/kg | NOAEL, 4 weeks (dogs): > 500 mg/kg/day | NOAEL, 52 weeks (dogs): > 500 mg/kg/day | Estrogen synthesis, Increase/decrease (H295R cells): No effect | Steroidogenesis (ERα) 17β-estradiol LOEC, +S9 (H295R cells; [7]): >−6.7 Log M | Steroidogenesis (ERα) 17β-estradiol LOEC, −S9 (H295R cells; −S9): >−6 Log M | LOEC for hTPO inhibition [6]: 19 ± 8.9 µM | TPO LOEC, Inhibition [6]: 19 µM | hTPO inhibition (thyroid) LOEC, +S9 [6, 7]: >−4.7 Log M | hTPO inhibition (thyroid) LOEC, −S9 ([6]; −S9): −4.7 Log M

Reference: article PMC11220827 (Frontiers in Pharmacology, 2024)
